In article PMC8854749, “Celastrol Inhibits Canine Mammary Tumor Cells by Inducing Apoptosis via the Caspase Pathway” (Frontiers in Veterinary Science, 2022):

Experiments:
Type in all cases: cell-based, canine
MDCK cells = test: Cell Counting Kit-8 (CCK-8) cell viability, non-tumor cell line; conditions: for IC50: Canis lupus familiaris, MDCK cells (non-tumor canine cell line), CCK-8
Experimental: CMT-7364, CIPp, and MDCK cells were plated in a 96-well plate with 2,000 cells per well and maintained in 5% CO2 at 37°C for 24 h until the cells adhered to the bottom. Then the medium was removed, the new media containing different concentrations (0, 0.1, 0.4, 0.6, 0.8, 1.2, and 1.6 μM) of celastrol were added, and incubated for 12, 24, 36, and 48 h. Ten microliters of the cell counting kit-8 (CCK-8) were added to each well for 1 h incubation. At each time point, the OD value was read by a microplate reader at 450 nm wavelength, and the cell viability with each drug concentration at different time points was calculated: cell relative viability=[(OD 450celastrol-OD 450blank) / (OD 450control-OD 450blank)] × 100%.

CMT-7364 cells [1] = test: Annexin V-FITC/PI apoptosis flow cytometry; conditions: 0.3 and 0.9 μM, 24 h, vs control group
Experimental: (§1) CMT-7364 and CIPp cells were seeded in a 6-well plate at a concentration of 1 × 10^5 cells/well, treated with different concentrations of celastrol (0, 0.3, and 0.9 μM) for 24 h. The cell culture medium was collected, the cells were washed once with PBS, digested with 0.25% trypsin, the cells were resuspended with the collected cell culture medium and kept after centrifugation. The cells were stained with Annexin V-FITC Apoptosis Detection Kit, and Guava easy Cyte5 (Merck millipore, United States) was used to detect the stained cells, and the data were analyzed by using Flow Jo software (version 10.0.7, United States).

CIPp cells [2] = test: Annexin V-FITC/PI apoptosis flow cytometry; conditions: 0.3 and 0.9 μM, 24 h, vs control group
Experimental: as §1

CMT-7364 cells [3] = test: Cell migration (wound healing) assay; conditions: 0.9 μM, 24 h, relative to cells without celastrol
Experimental: (§2) CMT-7364 and CIPp cell suspensions were uniformly seeded in a 6-well cell culture plate at a concentration of 1 × 10^5 cells/well. After the cells were fully confluent (more than 90 % of confluence), a 200-μl sterile pipette tip was used to scratch a straight line in the cells of each well. PBS was used to wash away the cell debris and floated cells, and 10% serum-containing medium (control group) and 10% serum-containing medium with celastrol (0.3 μM or 0.9 μM) (test group) were added, respectively, then cells were incubated for 24 h in an incubator. Mitomycin C (1 μM) was used to inhibit cell proliferation. Images of cell migration (wound healing) of the same field were taken with an inverted microscope at 0 and 24 h time points, respectively, followed by analyzing the cell migration rate with ImageJ software (version 1.8.0, United States). In brief, 6–8 horizontal lines were randomly drawn in the wound area to calculate the average value of the distance between cells. The migration rate = [(Distance celastrol0h-Distance celastrol24h) / (Distance control0h-Distance control24h)] × 100%.

CIPp cells [4] = test: Cell migration (wound healing) assay; conditions: 0.9 μM, 24 h, relative to cells without celastrol
Experimental: as §2

CMT-7364 cells [5] = test: Western blot of apoptosis- and cell cycle-related proteins; conditions: different concentrations, 24 h, Western blot
Experimental: (§3) The CMT-7364 and CIPp cells were treated with different concentrations of Caspase inhibitor Z-V-F and/or celastrol for 24 h, and the cells were lysed with RIPA lysis buffer on ice. The protein was extracted according to the manufacturer's instructions, and protein concentration was determined by the BCA protein concentration assay kit. The loading amount of 20 μg protein in each group was separated by 10% SDS-PAGE, the separated protein was transferred to polyvinylidene fluoride membrane. After blocking with 5% skimmed milk for 1 h, the membrane was washed two times with 0.5% PBS-Tween 20 (PBS-T), then the membrane with the primary antibody was incubated overnight in a shaker at 4°C. Primary antibodies include β-actin (1:2,000), p65 (1:1,000), NF-κB (1:1,000), Caspase-9 (1:1,000), Caspase-3 (1:1,000), Bax (1:2,000), Bcl-2 (1:1,000), Cyclin D1 (1:1,000), p21 (1:1,000), and p27 (1:1,000). After washing 3 times with PBS-T buffer for 10 min each time, the membrane was incubated with HRP-conjugated secondary antibody at 37°C for 30 min. Secondary antibodies include anti-mouse IgG antibody (1:5,000), anti-rabbit IgG antibody (1:2,000~1:4,000). The membrane was washed 3 times with PBS-T for 10 min each time. Finally, it was detected by an enhanced chemiluminescence detection system, and the results were quantified by ImageJ.

CIPp cells [6] = test: as above; conditions: different concentrations, 24 h, Western blot
Experimental: as §3

CMT-7364 cells [7] = test: Cell cycle distribution, PI staining, flow cytometry; conditions: 24 h (0 μM: 5.6%)
Experimental: (§4) To investigate whether celastrol inhibits the proliferation of canine mammary tumor cells by regulating the cell cycle, we treated canine mammary tumor cells with celastrol for 24 h, then stained cells with PI followed by flow cytometry to detect the percentage of different cell cycle phases. […] Furthermore, we detected the expression of mRNA and protein of cell cycle–related factors by qPCR and Western blotting.

CIPp cells [8] = test: as above; conditions: 24 h (0 μM: 12.0%)
Experimental: as §4

SMILES: CC1=C(O)C(=O)C=C2C1=CC=C1[C@@]2(C)CC[C@@]2(C)[C@@H]3C[C@](C)(C(=O)O)CC[C@]3(C)CC[C@]12C [celastrol, Celastrol]
- IC50 (MDCK cells; 24 h): 1810 nM
- IC50 (MDCK cells; 48 h): 1860 nM
- proliferation (MDCK cells; MDCK cells, concentration <1.2 μM): did not significantly inhibit
- percentages of early and late apoptotic cells (CMT-7364 cells [1]): increased in a dose-dependent manner
- percentages of early and late apoptotic cells (CIPp cells [2]): increased in a dose-dependent manner
- migration rate (CMT-7364 cells [3]): 55.33 ± 4.91%
- migration rate (CIPp cells [4]): 52.00 ± 1.73%
- protein expression level of Bax (CMT-7364 cells [5]): significantly up-regulated
- protein expression level of Bcl-2 (CMT-7364 cells [5]): significantly down-regulated
- protein expression level of Cleaved-Caspase-3 (CMT-7364 cells [5]): significantly up-regulated
- protein expression level of Cleaved-Caspase-9 (CMT-7364 cells [5]): significantly up-regulated
- protein expression level of Cyclin D1 (CMT-7364 cells [5]): down-regulated
- protein expression level of NF-kB (CMT-7364 cells [5]): significantly down-regulated
- protein expression level of p21 (CMT-7364 cells [5]): up-regulated
- protein expression level of p27 (CMT-7364 cells [5]): up-regulated
- protein expression level of phosphorylated p65 (CMT-7364 cells [5]): significantly down-regulated
- protein expression level of Bax (CIPp cells [6]): significantly up-regulated
- protein expression level of Bcl-2 (CIPp cells [6]): significantly down-regulated
- protein expression level of Cleaved-Caspase-3 (CIPp cells [6]): significantly up-regulated
- protein expression level of Cleaved-Caspase-9 (CIPp cells [6]): significantly up-regulated
- protein expression level of Cyclin D1 (CIPp cells [6]): down-regulated
- protein expression level of NF-kB (CIPp cells [6]): significantly down-regulated
- protein expression level of p21 (CIPp cells [6]): up-regulated
- protein expression level of p27 (CIPp cells [6]): up-regulated
- protein expression level of phosphorylated p65 (CIPp cells [6]): significantly down-regulated
- percentage of cell cycle G2/M phase (CMT-7364 cells [7]; 0.3 μM): 20.3%
- percentage of cell cycle G2/M phase (CMT-7364 cells [7]; 0.9 μM): 32.7%
- percentage of cell cycle G2/M phase (CIPp cells [8]; 0.3 μM): 21.9%
- percentage of cell cycle G2/M phase (CIPp cells [8]; 0.9 μM): 34.4%
